Patent US4988814A, “Tertiary alkyl functionalized piperazine derivatives” (American Home Products Corp., priority 1989, dated 1991)

How the values were obtained:
[1] = target: T1, 5-HT1A serotonin receptor (Rattus norvegicus, UniProt P19327); assay: 5-HT1A receptor binding, displacement of [^3 H] 8-OH DPAT (Hall et al.); settings: for inhibition at 0.1 µM / inhibition at 1 µM: read-out: Affinity for 5HT1A Receptor % Inhibition; for IC50: read-out: Affinity for 5HT1A Receptor IC50
T1 construct: 44: 1685-1696, 1985; from tissue
T1 sequence (P19327 1-422): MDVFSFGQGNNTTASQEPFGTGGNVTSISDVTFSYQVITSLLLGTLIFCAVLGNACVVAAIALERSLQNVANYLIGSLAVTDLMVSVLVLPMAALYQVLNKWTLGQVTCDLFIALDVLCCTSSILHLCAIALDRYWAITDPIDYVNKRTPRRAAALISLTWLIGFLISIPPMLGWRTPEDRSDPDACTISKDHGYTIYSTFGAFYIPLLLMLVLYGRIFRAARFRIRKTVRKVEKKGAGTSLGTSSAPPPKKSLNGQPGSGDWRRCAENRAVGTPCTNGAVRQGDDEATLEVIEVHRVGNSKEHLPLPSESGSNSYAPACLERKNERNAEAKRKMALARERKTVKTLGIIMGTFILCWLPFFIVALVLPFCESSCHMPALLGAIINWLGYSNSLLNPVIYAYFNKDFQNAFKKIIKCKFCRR
Description: 8-OH DPAT (dipropylaminotetralin) from the 5-HT1A serotonin receptor by the procedure of Hall et al., J. Neurochem.

[2] = target: T2, D2 dopamine receptor (Rattus norvegicus, UniProt P61169); assay: D2 dopamine receptor binding, limbic brain tissue incubated with ^3 H-spiroperiodol; settings: for inhibition at 1 µM: read-out: Affinity for D2 Receptor % Inhibition
T2 construct: from tissue; host or cells: homogenized limbic brain tissue
Description: The D2 dopamine receptor binding study was in accordance with a modification of the procedure of Field et al., Brain Res., 136, pp. 578-584 (1977) and Yamamura et al., eds., Neurotransmitter Receptor Binding, Raven Press, N.Y. (1978), wherein homogenized limbic brain tissue is incubated with ^3 H-spiroperiodol and various concentrations of test compounds, filtered and washed and shaken with Hydrofluoro scintillation cocktail (National Diagnostics) and counted in a Packard 460CD scintillation counter.

[3] = tested on: 5-HT1A receptor; settings: prior art; cited from earlier work
[4] = tested on: D2 receptor; settings: prior art; cited from earlier work

T2 sequence (P61169 whole entry): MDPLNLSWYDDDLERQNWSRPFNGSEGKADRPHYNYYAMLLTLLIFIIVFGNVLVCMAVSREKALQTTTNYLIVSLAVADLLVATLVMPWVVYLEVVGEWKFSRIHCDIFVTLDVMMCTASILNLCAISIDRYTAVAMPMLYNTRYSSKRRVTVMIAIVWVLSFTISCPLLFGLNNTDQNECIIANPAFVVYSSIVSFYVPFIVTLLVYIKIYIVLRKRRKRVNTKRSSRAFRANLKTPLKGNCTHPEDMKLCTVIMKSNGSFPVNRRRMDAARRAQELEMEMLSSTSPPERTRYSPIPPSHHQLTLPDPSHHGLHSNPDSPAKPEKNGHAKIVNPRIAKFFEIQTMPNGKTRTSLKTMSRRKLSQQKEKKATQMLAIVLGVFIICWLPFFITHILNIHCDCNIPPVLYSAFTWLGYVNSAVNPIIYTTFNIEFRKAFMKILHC

SMILES	inhibition at 0.1 µM [1]	inhibition at 1 µM [1]	also measured
COc1ccccc1N1CCN(CC(C(=O)NC(C)(C)C)c2ccccc2)CC1 (centres unmarked) [Example 13, N-Tertiary-butyl 3-[4-(2-methoxyphenyl)piperazinyl]-2-phenylpropanamide]	–	–	IC50 ([2]; read-out: Affinity for D2 Receptor IC50): 1.74 µM
COc1ccccc1N1CCN(C[C@@H](C)NC(=O)C2(C)CCCCC2)CC1 [Example 20, (R)-N-[2-[4-(2-Methoxyphenyl)-1-piperazinyl]-1-methylethyl]-1-methylcyclohexane carboxamide]	100%	–	–
CCCCN1C(=O)C2C(=O)N(CCCCN3CCN(c4ccccc4OC)CC3)C(=O)C(C1=O)C2(C)C [umespirone]	–	–	5-HT1A receptor affinity/activity (in words) [3]: high affinity; D2 receptor affinity (in words) [4]: high affinity
CC1(C(=O)NCCN2CCN(c3ncccn3)CC2)CCCCC1 [Example 19, N-2-(4-(2-Pyrimidinyl)-1-piperazinyl)ethyl-1-methylcyclohexylcarboxamide]	67%	–	–
COc1ccccc1N1CCN(CC(C(=O)NNC(C)(C)C)c2ccccc2)CC1 (centres unmarked) [Example 26, N-Tert-butyl-3-[1-[4-(2-methoxy)phenyl]piperazinyl]-2-phenyl-propionhydrazide]	48%	96%	IC50 [1]: 0.118 µM
COc1ccccc1N1CCN(CCNC(=O)NC2(C)CCCCC2)CC1 [Example 18, N-[2-[4-(2-Methoxyphenyl)-1-piperazinyl]ethyl]-N'-(1-methylcyclohexyl)urea]	85%	–	–
O=C1CC2(CCCC2)CC(=O)N1CCCCN1CCN(c2ncccn2)CC1 [buspirone, reference compound]	–	–	5-HT1A receptor affinity/activity (in words) [3]: selective activity; 5-HT1A receptor affinity/binding (in words) [1]: potent affinity
COc1ccccc1N1CCN(CCNC(=O)C2(C)CCCCC2)CC1 [Example 15, N-[2-[4-(2-Methoxyphenyl)-1-piperazinyl)ethyl]-1-methylcyclohexanecarboxamide]	98%	–	–

More lines, main results first:

inhibition at 0.1 µM [1]	inhibition at 1 µM [1]	SMILES	also measured
27%	78%	COc1ccccc1N1CCN(CC(OC(=O)C(C)(C)C)c2ccccc2)CC1 (centres unmarked) [Example 23, 2,2-Dimethylpropanoic acid 2-(4-(2-methoxyphenyl)-piperazin-1-yl)-1-phenylethyl ester]	IC50 [1]: 0.27 µM
–	98%	COc1ccccc1N1CCN(CCCOC(=O)C(C)(C)C)CC1 [Example 4, 2,2-Dimethylpropanoic acid 3-[4-(2-methoxyphenyl)-1-piperazinyl]propyl ester]	inhibition at 1 µM [2]: 99%
91%	–	COc1ccccc1N1CCN(CCCCNC(=O)NC(C)(C)C)CC1 [Example 1, N-(1,1-Dimethylethyl)-N^1-[4-[4-(2-methoxyphenyl)-1-piperazinyl]butyl]urea]	–
73%	97%	COc1ccccc1N1CCN(CC(OC(=O)NC(C)(C)C)c2ccccc2)CC1 (centres unmarked) [Example 24]	IC50 [1]: 0.02 µM
100%	–	COc1ccccc1N1CCN(CCCCNC(=O)C(C)(C)C)CC1 [Example 2, N-[4-[4-(2-Methoxyphenyl)-1-piperazinyl]butyl]-2,2-dimethylpropanamide]	–
86%	98%	COc1ccccc1N1CCN(CC(C(=O)OC(C)(C)C)c2ccccc2)CC1 (centres unmarked) [Example 12, Tertiary-butyl 3-[1-[4-(2-methoxyphenyl)piperazinyl]]-2-phenylpropanoate]	IC50 [1]: 0.0118 µM
–	86%	COc1ccccc1N1CCN(CCOC(=O)C(C)(C)C)CC1 [Example 3, 2,2-Dimethylpropanoic acid 2-[4-(2-methoxyphenyl)-1-piperazinyl]ethyl ester]	inhibition at 1 µM [2]: 89%
–	98%	CC(C)(C)C(=O)OCCCN1CCN(c2ccccc2Cl)CC1 [Example 5, 2,2-Dimethylpropanoic acid 3-[4-(2-chlorophenyl)-1-piperazinyl]propyl ester]	inhibition at 1 µM [2]: 58%
